Assay results from patent US20090068210A1, “IMMUNOTHERAPY FOR HEMATOLOGICAL MALIGNANCIES” (priority 2007, published 2009).

Tests used:
[1] = cited from earlier work; for Hygroscopicity: polymorphic form; for Interconversion in solvent systems: interconversion studies
iNKT cells [2] = assay: Cytokine production (ELISA) by iNKT cells co-cultured with antigen presenting cells (MM1S.CD1d cells or DCs), with or without α-GalCer; assay type: cell-based, human
iNKT cells [3] = assay: as above; assay type: cell-based, human; remark: listed apart in the source
Method: 1×10^5 NKT cells from MM patients were plated in a 96-well plate with MM1S.CD1d cells or DCs at ratios of 2:1 and 4:1, respectively, with or without pre-loaded α-GalCer (100 ng/ml). 1-Oxo-2-(2,6-dioxopiperidin-3-yl)-4-aminoisoindoline (2 μM) was used as indicated, with DMSO as control. The supernatant was collected at 48 and 72 hours and the levels of IFN-γ, IL-2 and IL-4 were determined by ELISA (R&D Systems, Minneapolis, Minn.).

[4] = iNKT cells + MM1S.CD1d cells in the absence of α-GalCer, compound 2 μM, ELISA
[5] = iNKT cells + α-GalCer-loaded MM1S.CD1d cells, compound 2 μM vs controls (DMSO), ELISA

## Nc1cccc2c1CN(C1CCC(=O)NC1=O)C2=O (stereo not shown) [Form A, 3-(4-amino-1-oxo-1,3 dihydro-isoindol-2-yl)-piperidene-2,6-dione]
[1]; Form A: anhydrous polymorphs, Form E: aqueous solvent systems
  Relative stability among polymorphs: most thermodynamically stable anhydrous polymorph
[1]
  Hygroscopicity: weakly or not hygroscopic

## Nc1cccc2c1CN(C1CCC(=O)NC1=O)C2=O (stereo not shown) [1-oxo-2-(2,6-dioxopiperidin-3-yl)-4-aminoisoindoline]
iNKT cells [2]; CD1d-transfected C1R cells as antigen presenting cells
  Increase in IFN-γ and IL-2 levels and decrease in IL-4 level: confirmed
iNKT cells [2]; iNKT cells alone or co-cultured with mock MM.1S cells, with or without α-GalCer
  Direct stimulation of iNKT cells: did not directly stimulate
iNKT cells [3]; iNKT cells + CD1d expressing multiple myeloma cells without α-GalCer, compound vs cells alone
  IL-4 level: decrease
iNKT cells [3]; [4]
  IFN-γ production: increase
  IL-2 production: increase
iNKT cells [3]; [5]
  IFN-γ level: significant increase
  IL-2 level: significant increase
  IL-4 level: decrease

## Nc1cccc2c1CN(C1CCC(=O)NC1=O)C2=O (stereo not shown) [Form C, 3-(4-amino-1-oxo-1,3 dihydro-isoindol-2-yl)-piperidene-2,6-dione]
[1]
  Hygroscopicity: not hygroscopic below about 85% RH

## Nc1cccc2c1CN(C1CCC(=O)NC1=O)C2=O (stereo not shown) [Form D, 3-(4-amino-1-oxo-1,3 dihydro-isoindol-2-yl)-piperidene-2,6-dione]
[1]
  Hygroscopicity: either weakly or not hygroscopic

## Nc1cccc2c1CN(C1CCC(=O)NC1=O)C2=O (stereo not shown) [Form E, 3-(4-amino-1-oxo-1,3 dihydro-isoindol-2-yl)-piperidene-2,6-dione]
[1]; about 125° C. for about five minutes
  Conversion upon heating (desolvation): can convert to Form B
[1]
  Interconversion in solvent systems: can convert to Form C in an acetone solvent system and to Form G in a THF solvent system

## Nc1cccc2c1CN(C1CCC(=O)NC1=O)C2=O (stereo not shown) [Form B, 3-(4-amino-1-oxo-1,3 dihydro-isoindol-2-yl)-piperidene-2,6-dione]
[1]; 175° C. for about five minutes
  Conversion upon heating: can convert to Form F
[1]
  Interconversion in solvent systems: converts to Form E in aqueous solvent systems
